Data as given in patent US12540120B2, “Herbicidal compounds” (SYNGENTA CROP PROTECTION AG, priority 2019, dated 2026).

Legend:
Format in all cases: in vivo
[1] = system: Ipomoea hederacea (IPOHE); test: B3 Post-Emergence Efficacy—Test 3; settings: post-emergence application, 250 g/ha, evaluated after 13 days (Test 3)
Experimental: (§1) B3 Post-Emergence Efficacy—Test 3 Seeds of a variety of test species are sown in standard soil in pots:—Amaranthus retoflexus (AMARE), Setaria faberi (SETFA), Echinochloa crus-galli (ECHCG), Ipomoea hederacea (IPOHE), Zea Mays (ZEAMX), Abutilon theophrasti (ABUTH). After 8 days cultivation (post-emergence) under controlled conditions in a glasshouse (at 24/16° C., day/night; 14 hours light; 65% humidity), the plants are sprayed with an aqueous spray solution derived from the formulation of the technical active ingredient in acetone/water (50:50) solution containing 0.5% Tween 20 (polyoxyethylene sorbitan monolaurate, CAS RN 9005-64-5). Compounds are applied at 250 g/ha. The test plants are then grown in a glasshouse under controlled conditions in a glasshouse (at 24/16° C., day/night; 14 hours light; 65% humidity) and watered twice daily. After 13 days, the test is evaluated for the percentage damage caused to the plant. The biological activities are assessed on a five point scale (5=80-100%; 4=60-79%; 3=40-59%; 2=20-39%; 1=0-19%). A blank value in the table is indicative that the compound was not tested on that species.

[2] = system: Amaranthus retoflexus (AMARE); test: B3 Post-Emergence Efficacy—Test 3; settings: post-emergence application, 250 g/ha, evaluated after 13 days (Test 3)
Experimental: as §1

[3] = system: Echinochloa crus-galli (ECHCG); test: B3 Post-Emergence Efficacy—Test 3; settings: post-emergence application, 250 g/ha, evaluated after 13 days (Test 3)
Experimental: as §1

Setaria faberi (SETFA) [4] = test: B3 Post-Emergence Efficacy—Test 3; settings: post-emergence application, 250 g/ha, evaluated after 13 days (Test 3)
Experimental: as §1

Zea Mays (ZEAMX) [5] = test: B3 Post-Emergence Efficacy—Test 3; settings: post-emergence application, 250 g/ha, evaluated after 13 days (Test 3)
Experimental: as §1

[6] = system: Abutilon theophrasti (ABUTH); test: B3 Post-Emergence Efficacy—Test 3; settings: post-emergence application, 250 g/ha, evaluated after 13 days (Test 3)
Experimental: as §1

[7] = system: Ipomoea hederacea (IPOHE); test: B6 Pre-Emergence Efficacy—Test 3; settings: pre-emergence application, 250 g/ha, evaluated after 13 days (Test 3)
Experimental: (§2) B6 Pre-Emergence Efficacy—Test 3 Seeds of a variety of test species were sown in standard soil in pots: Amaranthus retoflexus (AMARE), Setaria faberi (SETFA), Echinochloa crus-galli (ECHCG), Ipomoea hederacea (IPOHE), Zea Mays (ZEAMX), Abutilon theophrasti (ABUTH). After cultivation for one day (pre-emergence) under controlled conditions in a glasshouse (at 24/16° C., day/night; 14 hours light; 65% humidity), the plants were sprayed with an aqueous spray solution derived from the formulation of the technical active ingredient in acetone/water (50:50) solution containing 0.5% Tween 20 (polyoxyethelyene sorbitan monolaurate, CAS RN 9005-64-5). Compounds are applied at 250 g/ha. The test plants were then grown in a glasshouse under controlled conditions (at 24/16° C., day/night; 14 hours light; 65% humidity) and watered twice daily. After 13 days, the test is evaluated for the percentage damage caused to the plant. The biological activities are assessed on a five point scale (5=80-100%; 4=60-79%; 3=40-59%; 2=20-39%; 1=0-19%). A blank value in the table is indicative that the compound was not tested on that species.

[8] = system: Amaranthus retoflexus (AMARE); test: B6 Pre-Emergence Efficacy—Test 3; settings: pre-emergence application, 250 g/ha, evaluated after 13 days (Test 3)
Experimental: as §2

[9] = system: Echinochloa crus-galli (ECHCG); test: B6 Pre-Emergence Efficacy—Test 3; settings: pre-emergence application, 250 g/ha, evaluated after 13 days (Test 3)
Experimental: as §2

Setaria faberi (SETFA) [10] = test: B6 Pre-Emergence Efficacy—Test 3; settings: pre-emergence application, 250 g/ha, evaluated after 13 days (Test 3)
Experimental: as §2

Zea Mays (ZEAMX) [11] = test: B6 Pre-Emergence Efficacy—Test 3; settings: pre-emergence application, 250 g/ha, evaluated after 13 days (Test 3)
Experimental: as §2

[12] = system: Abutilon theophrasti (ABUTH); test: B6 Pre-Emergence Efficacy—Test 3; settings: pre-emergence application, 250 g/ha, evaluated after 13 days (Test 3)
Experimental: as §2

SMILES | percentage damage caused to the plant, five point scale, IPOHE [1] | percentage damage caused to the plant, five point scale, AMARE [2] | percentage damage caused to the plant, five point scale, ECHCG [3] | percentage damage caused to the plant, five point scale, SETFA (Setaria faberi (SETFA) [4]) | percentage damage caused to the plant, five point scale, ZEAMX (Zea Mays (ZEAMX) [5]) | percentage damage caused to the plant, five point scale, ABUTH [6] | percentage damage caused to the plant, five point scale, IPOHE [7] | percentage damage caused to the plant, five point scale, AMARE [8] | percentage damage caused to the plant, five point scale, ECHCG [9] | percentage damage caused to the plant, five point scale, SETFA (Setaria faberi (SETFA) [10]) | percentage damage caused to the plant, five point scale, ZEAMX (Zea Mays (ZEAMX) [11]) | percentage damage caused to the plant, five point scale, ABUTH [12]
Cc1nn(C)c(=O)c(-c2c(F)ccc(Cl)c2CCc2ccc(-c3ncco3)cc2)c1O [Compound A-1.382] | 5 (5=80-100%) | 4 (4=60-79%) | 4 (4=60-79%) | 4 (4=60-79%) | 5 (5=80-100%) | 4 (4=60-79%) | 5 (5=80-100%) | 5 (5=80-100%) | 5 (5=80-100%) | 5 (5=80-100%) | 4 (4=60-79%) | 4 (4=60-79%)
Cc1nn(C)c(=O)c(-c2c(F)ccc(Cl)c2CCc2cnn(-c3ccccc3)c2)c1O [Compound A-1.386] | 4 (4=60-79%) | 4 (4=60-79%) | 4 (4=60-79%) | 4 (4=60-79%) | 4 (4=60-79%) | 3 (3=40-59%) | 4 (4=60-79%) | 2 (2=20-39%) | 5 (5=80-100%) | 5 (5=80-100%) | 2 (2=20-39%) | 2 (2=20-39%)
Cc1nn(C)c(=O)c(-c2c(F)ccc(Cl)c2CCc2cnn(C3CC3)c2)c1O [Compound A-1.387] | 4 (4=60-79%) | 4 (4=60-79%) | 4 (4=60-79%) | 4 (4=60-79%) | 4 (4=60-79%) | 4 (4=60-79%) | 5 (5=80-100%) | 5 (5=80-100%) | 5 (5=80-100%) | 5 (5=80-100%) | 4 (4=60-79%) | 4 (4=60-79%)
CSCc1ccc(CCc2c(Cl)ccc(F)c2-c2c(O)c(C)nn(C)c2=O)cc1 [Compound A-1.388, 4-[3-chloro-6-fluoro-2-[2-[4-(methylsulfanylmethyl)phenyl]ethyl]phenyl]-5-hydroxy-2,6-dimethyl-pyridazin-3-one] | 4 (4=60-79%) | 5 (5=80-100%) | 4 (4=60-79%) | 4 (4=60-79%) | 4 (4=60-79%) | 5 (5=80-100%) | 5 (5=80-100%) | 5 (5=80-100%) | 5 (5=80-100%) | 5 (5=80-100%) | 4 (4=60-79%) | 5 (5=80-100%)
